Values after ≈ are worked out from the molar mass of the structure shown. Blank lines part the entries; values can stand above or below the molecule they belong to.
Legend:
[1] = Antiproliferative activity against human ICC13-7 cells expressing FGFR2 V565F mutant assessed as inhibition of cell growth incubated for 10 days by Cell-titer glo assay; settings: ICC13-7, 240 h
[2] = Oral bioavailability in Beagle dog at 15 mg/kg administrated at 0.25 to 24 hrs by LC-MS/MS analysis; assay type: ADME, organism-based, Canis lupus familiaris; settings: in vivo, time 0.25-24 hrs
CC-LP-1 [3] = assay: Antiproliferative activity against human CC-LP-1 cells expressing FGFR2 N550K mutant assessed as inhibition of cell growth incubated for 3 days by Cell-titer glo assay; settings: CC-LP-1, 72 h
[4] = Total clearance in Beagle dog at 5 mg/kg,iv administrated at 0.25 to 24 hrs by LC-MS/MS analysis; assay type: ADME, organism-based, Canis lupus familiaris; settings: in vivo, time 0.25-24 hrs
[5] = Intrinsic clearance in human hepatocyte measured per 10^6 cells; assay type: ADME, cell-based; settings: hepatocytes, read-out: CLH
[6] = Cmax in Sprague-Dawley rat at 15 mg/kg,po administrated at 0.25 to 24 hrs by LC-MS/MS analysis; assay type: ADME, organism-based; settings: in vivo, time 0.25-24 hrs
[7] = Oral bioavailability in Sprague-Dawley rat at 15 mg/kg administrated at 0.25 to 24 hrs by LC-MS/MS analysis; assay type: ADME, organism-based; settings: in vivo, time 0.25-24 hrs
CC-LP-1 [8] = assay: Antiproliferative activity against human CC-LP-1 cells expressing FGFR2 V565F mutant assessed as inhibition of cell growth incubated for 3 days by Cell-titer glo assay; settings: CC-LP-1, 72 h
[9] = Half life in Sprague-Dawley rat at 5 mg/kg,iv administrated at 0.25 to 24 hrs by LC-MS/MS analysis; assay type: ADME, organism-based; settings: in vivo, time 0.25-24 hrs
[10] = Antiproliferative activity against human ICC13-7 cells expressing FGFR2 N550K mutant assessed as inhibition of cell growth incubated for 10 days by Cell-titer glo assay; settings: ICC13-7, 240 h
[11] = Half life in Beagle dog at 5 mg/kg,iv administrated at 0.25 to 24 hrs by LC-MS/MS analysis; assay type: ADME, organism-based, Canis lupus familiaris; settings: in vivo, time 0.25-24 hrs
[12] = Total clearance in Sprague-Dawley rat at 5 mg/kg,iv administrated at 0.25 to 24 hrs by LC-MS/MS analysis; assay type: ADME, organism-based; settings: in vivo, time 0.25-24 hrs
[13] = Antiproliferative activity against human ICC13-7 cells assessed as inhibition of cell growth incubated for 3 days by Cell-titer glo assay; settings: ICC13-7, 72 h
[14] = Cmax in Beagle dog at 15 mg/kg,po administrated at 0.25 to 24 hrs by LC-MS/MS analysis; assay type: ADME, organism-based, Canis lupus familiaris; settings: in vivo, time 0.25-24 hrs
[15] = AUC (0 to 24 hrs) in Sprague-Dawley rat at 15 mg/kg,po administrated at 0.25 to 24 hrs by LC-MS/MS analysis; assay type: ADME, organism-based; settings: in vivo, time 0.25-24 hrs
CC-LP-1 [16] = assay: Antiproliferative activity against human CC-LP-1 cells assessed as inhibition of cell growth incubated for 3 days by Cell-titer glo assay; settings: CC-LP-1, 72 h
SNU-16 [17] = assay: Antiproliferative activity against human SNU-16 cells assessed as inhibition of cell growth incubated for 5 days by Cell-titer glo assay; settings: SNU-16, 120 h
[18] = Intrinsic clearance in human liver microsomes; assay type: ADME, Microsome; settings: read-out: CLH
[19] = AUC (0 to 24 hrs) in Beagle dog at 15 mg/kg,po administrated at 0.25 to 24 hrs by LC-MS/MS analysis; assay type: ADME, organism-based, Canis lupus familiaris; settings: in vivo, time 0.25-24 hrs
SNU-16 [20] = assay: Antitumor activity against human SNU-16 cells xenografted in mouse assessed as inhibition of tumor growth at po administrated once daily for 3 weeks; assay type: functional, organism-based
[21] = Toxicity in mouse xenografted with human RT-112 cells assessed as body weight loss at 15 mg/kg,po administrated once daily for 3 weeks; assay type: organism-based; settings: in vivo, 504 h
SNU-16 [22] = assay: Antitumor activity against human SNU-16 cells xenografted in mouse assessed as tumor growth inhibition at 15 mg/kg,po administrated once daily for 3 weeks relative to control; assay type: functional; settings: SNU-16, 504 h, read-out: TGI
RT-112 [23] = assay: Antitumor activity against human RT-112 cells xenografted in mouse assessed as tumor growth inhibition at 5 mg/kg,po administrated once daily for 3 weeks relative to control; assay type: functional; settings: RT-112, 504 h, read-out: TGI
[24] = Antitumor activity against patient derived STO357 PDX cells xenografted in mouse assessed as downregulation of ERK phosphorylation at 5 mg/kg,po administration and measured after 7 hrs by MSD assay; assay type: functional, Homo sapiens
[25] = Solubility of compound in SGF; assay type: ADME
RT-112 [26] = assay: Antitumor activity against human RT-112 cells xenografted in mouse assessed as inhibition of tumor growth at po administrated once daily for 3 weeks; assay type: functional, organism-based
[27] = Unbound drug concentration in mouse plasma xenografted with patient derived STO357 PDX cells at 15 mg/kg,po administration and measured after 1 hr by LC-MS/MS analysis; assay type: ADME, organism-based; settings: in vivo
[28] = Antitumor activity against patient derived STO357 PDX cells xenografted in mouse assessed as tumor growth inhibition at 5 mg/kg,po administrated once daily for 3 weeks relative to control; assay type: functional; settings: Homo sapiens, 504 h, read-out: TGI
SNU-16 [29] = assay: Antitumor activity against human SNU-16 cells xenografted in mouse assessed as tumor growth inhibition at 5 mg/kg,po administrated once daily for 3 weeks relative to control; assay type: functional; settings: SNU-16, 504 h, read-out: TGI
[30] = Lipophilicity, logP of compound; assay type: physicochemical; settings: octanol/water
[31] = Toxicity in mouse xenografted with patient derived STO357 PDX cells assessed as body weight change at 5 to 15 mg/kg,po administrated once daily for 3 weeks; assay type: organism-based; settings: in vivo, 504 h, dose 5-15 mg/kg
[32] = Solubility of compound in FaSSIF; assay type: ADME
RT-112 [33] = assay: Antitumor activity against human RT-112 cells xenografted in mouse assessed as tumor growth inhibition at 15 mg/kg,po administrated once daily for 3 weeks relative to control; assay type: functional; settings: RT-112, 504 h, read-out: TGI
[34] = Solubility of compound in FeSSIF; assay type: ADME
[35] = Unbound drug concentration in mouse plasma xenografted with patient derived STO357 PDX cells at 15 mg/kg,po administration and measured after 12 hr by LC-MS/MS analysis; assay type: ADME, organism-based; settings: in vivo
[36] = Antitumor activity against patient derived STO357 PDX cells xenografted in mouse assessed as downregulation of ERK phosphorylation at 15 mg/kg,po administration and measured after 7 hrs by MSD assay; assay type: functional, Homo sapiens
[37] = Toxicity in mouse xenografted with human SNU-16 cells assessed as body weight change at 2 to 15 mg/kg,po administrated once daily for 3 weeks; assay type: organism-based; settings: in vivo, 504 h, dose 2-15 mg/kg
[38] = Aqueous solubility of the compound at pH 2; assay type: physicochemical
SNU-16 [39] = assay: Antitumor activity against human SNU-16 cells xenografted in mouse assessed as tumor growth inhibition at 2 mg/kg,po administrated once daily for 3 weeks relative to control; assay type: functional; settings: SNU-16, 504 h, read-out: TGI
[40] = Dissociation constant, pKa of the compound; assay type: physicochemical
[41] = Unbound drug concentration in mouse plasma xenografted with patient derived STO357 PDX cells at 15 mg/kg,po administration and measured after 15 mins by LC-MS/MS analysis; assay type: ADME, organism-based; settings: in vivo, 0.25 h
[42] = Aqueous solubility of the compound at pH 7.4; assay type: physicochemical
RT-112 [43] = assay: Antitumor activity against human RT-112 cells xenografted in mouse assessed as tumor growth inhibition at 2 mg/kg,po administrated once daily for 3 weeks relative to control; assay type: functional; settings: RT-112, 504 h, read-out: TGI

bioavailability [2]: 23.5% | clearance [4]: 31.8 mL/min/kg | hepatocyte CLint [5]: 12 µL/min/1e6 cells | Cmax [6]: 760 ng/mL | bioavailability [7]: 27% | half-life [9]: 8.85 h | half-life [11]: 11.4 h | clearance [12]: 25 mL/min/kg | Cmax [14]: 770 ng/mL | AUC(0-t) [15]: 2620 ng·h/mL | IC50 (SNU-16 [17]): 4 nM | microsomal CLint [18]: 97.1 µL/min/mg | AUC(0-t) [19]: 1700 ng·h/mL
SMILES: C=CC(=O)N1C[C@@H](n2nc(C#Cc3cc4ncn(C5CC5)c4cc3F)c(C(N)=O)c2NC)C[C@@H]1COC
IC50 [1]: 1.4 nM | IC50 (CC-LP-1 [3]): 3.6 nM | IC50 (CC-LP-1 [8]): 1.5 nM | IC50 [10]: 3.5 nM | IC50 [13]: 1.4 nM | IC50 (CC-LP-1 [16]): 2.3 nM

bioavailability [2]: 17.5% | solubility [25]: 800 µg/mL (≈ 1530 µM) | Cp(f) [27]: ~ 50 ng/ml | clearance [4]: 23.9 mL/min/kg | hepatocyte CLint [5]: 7.2 µL/min/1e6 cells | Cmax [6]: 1490 ng/mL | bioavailability [7]: 24.3% | half-life [9]: 5.46 h | logP [30]: 2.5 | half-life [11]: 6.89 h | clearance [12]: 16.1 mL/min/kg | solubility [32]: 400 µg/mL (≈ 764 µM) | solubility [34]: 300 µg/mL (≈ 573 µM) | Drug uptake(free) [35]: Not Active | Cmax [14]: 815 ng/mL | AUC(0-t) [15]: 3740 ng·h/mL | solubility [38]: 301 µM (≈ 158 µg/mL) | pKa [40]: 2.22 | Cp(f) [41]: ~ 100 ng/ml | microsomal CLint [18]: 59.6 µL/min/mg | AUC(0-t) [19]: 2100 ng·h/mL | solubility [42]: 69.7 µM (≈ 36.5 µg/mL)
SMILES: C=CC(=O)N1C[C@@H](n2nc(C#Cc3c(F)cc4c(ncn4C4CC4)c3F)c(C(N)=O)c2NC)C[C@@H]1COC [RESIGRATINIB]
Activity (SNU-16 [20]): Dose-Dependent Effect | Activity [21]: 5.4% | inhibition in vivo at 15 mg/kg (SNU-16 [22]): 93% | inhibition in vivo at 5 mg/kg (RT-112 [23]): 91% | Activity [24]: 25% | Activity (RT-112 [26]): Dose-Dependent Effect | inhibition in vivo at 5 mg/kg [28]: 90% | inhibition in vivo at 5 mg/kg (SNU-16 [29]): 81% | Activity [31]: Non-Toxic | inhibition in vivo at 15 mg/kg (RT-112 [33]): 99% | Activity [36]: 75% | Activity [37]: Non-Toxic | inhibition in vivo at 2 mg/kg (SNU-16 [39]): 69% | inhibition in vivo at 2 mg/kg (RT-112 [43]): 80%

Source: ChEMBL document CHEMBL5537196, “Discovery of KIN-3248, An Irreversible, Next Generation FGFR Inhibitor for the Treatment of Advanced Tumors Harboring FGFR2 and/or FGFR3 Gene Alterations” (J Med Chem, 2024)
